How the values were obtained:
MEPs = experiment: Atomic force microscopy measurement of stiffness (MEPs); assay type: cell-based, human; conditions: 45 cells per condition
Description: (§1) Once samples were equilibrated to 25° C., cell deformity was measured, and stiffness was calculated as previously described (Alcaraz J, et al., (2008) Laminin and biomimetic extracellular elasticity enhance functional differentiation in mammary epithelia. EMBO J 27:2829-2838.). The resulting data were plotted using Prism(GraphPad Software) (n=45).

mouse mammary organoids = conditions: time-lapse imaging studies; less catastrophic than in the HMEC microwell assay; cited from earlier work
HMEC cell surfaces = experiment: Recombinant E-cadherin (recEcad) binding to HMEC cell surfaces by flow cytometry; assay type: cell-based, human; conditions: 6 h pretreatment/preincubation of HMEC in suspension; recEcad 100 μg/mL 1 h on ice
Description: (§2) To determine effects of inhibitors, Y27632 at 10−5 M (Calbiochem) or ML-7 at 3×10−6 M (Calbiochem) was added to HMEC medium for 6 h at 37° C. (5% CO2) before trypsinization and subsequent measurement of E-cadherin by FACS. To measure the ability of recEcad to bind to HMEC in presence of inhibitors, cells were suspended in their medium in Falcon tubes (to prevent adhesion to a culture surface) in the presence of Y27632 at 10−5M (Calbiochem), ML-7 at 3×10−6M (Calbiochem), or anti-E-cadherin (100 μg/mL; clone HECD-1; Invitrogen), or in calcium-free medium for 6 h at 37° C. (5% CO2). recEcad conjugated to human IgG Fc region was added at 100 μg/mL for 1 h on ice. HMEC then were washed with medium and incubated with anti-human IgG-A633 (1:500; Invitrogen) in their own medium.

E-cadherin = E-cadherin surface expression on LEPs and MEPs by flow cytometry; assay type: cell-based, human; conditions: Y27632 10−5 M or ML-7 3×10−6 M in HMEC medium for 6 h
Description: E-cadherin expression on LEP and MEP was measured by addition of anti-E-cadherin-A647 (clone 67A4; Biolegend) to the above mixture at 1:50.
as §2

[1] = system: HMEC strain 240L (LEPs and MEPs); experiment: Microwell self-organization assay; assay type: cell-based, human; conditions: for self-organization of LEPs and MEPs: actomyosin inhibitors (ML-7 3×10^−6 M, Y27632 10^−5 M) added at the beginning, refreshed every 24 h, over 48 h; for organization measured at 48 h: inhibitor added a single time after 24 h, when organization was already underway; for self-organization at the 24-h time point / differences in LEP:MEP ratios in the core and at the periphery by 48 h: inhibitor added a single time at 0 h; for differences in LEP:MEP ratios in the core and at the periphery by 48 h: P<0.01
Text: Micropatterned substrata were made according to Tan et al. (2004) “Simple approach to micropattern cells on common culture substrates by tuning substrate wettability”. Tissue Eng 10:865-872, hereby incorporated by reference. Polydimethylsiloxane (PDMS) microwell arrays were formed by curing prepolymer with base:cure ratio of 10:1 (Sylguard 184) against a prepatterned master. The arrays of wells were peeled away and were cut into 1-cm^2 pieces that were affixed with a few microliters of uncured PDMS to the bottom of a 24-well plate (Mitek). Plates with microwells were UV oxidized for 7 min (UVO-Cleaner 42; Jelight Co.), blocked with 2 mg/mL BSA (Sigma) for 1 h under vacuum, and rinsed with PBS and M87A. All self-organizing experiments were conducted with HMEC strain 240L. Flow cytometry-sorted HMEC were stained with CM-DiI, SP-DiOC18 (Steinberg M S, (1962) On the mechanism of tissue reconstruction by dissociated cells. I. Population kinetics, differential adhesiveness, and the absence of directed migration. Proc Natl Acad Sci USA 48:1577-1582), or DiIC18(Wei C, et al., (2007) Self-organization and branching morphogenesis of primary salivary epithelial cells. Tissue Eng 13:721-735)-DS (Invitrogen), used at 1:1,000 in PBS for 5 min at 37° C. followed by 15 min at 4° C. Cells were washed extensively with medium after staining Dye-stained HMEC were mixed at a ratio of 1:1 (LEP:MEP) or 1:1 (randomly stained green:red HMEC cultures) and were resuspended in M87A at 1 million cells/mL. […] HMEC were imaged at 0, 24, or 48 h with a spinning disk confocal microscope (Carl Zeiss). Red and green fluorescence channels in images taken at the ˜25-μm z axis positions of 30 wells from each condition at each time point were binarized using the Threshold function, merged into a Z-stack, and then averaged using ImageJ software (National Institutes of Health). Gray-scaled average images corresponding to LEP and MEP were merged into a single image with red or green look-up tables applied to each average image.
Heat maps were generated. Briefly, heat maps were normalized to the highest intensity value and were used to quantify sorting using the expression log2(mean green pixel intensity/mean red pixel intensity). A script was written using MATLAB (Mathworks) to plot differential intensity as a function of the distance from the center and to compute the average plot from θ of 0-360° (Fig S2).

LEPs = experiment: Atomic force microscopy measurement of stiffness (LEPs); assay type: cell-based, human; conditions: 45 cells per condition
Description: as §1

HCT116 = HCT116 epithelial cell line (Sahai et al. 2002); cited from earlier work
MDCK = MDCK epithelial cell line (Sahai et al. 2002); cited from earlier work

Structure (SMILES): O=S(=O)(c1cccc2c(I)cccc12)N1CCCNCC1 [ML-7]
- MEP stiffness (MEPs): unaffected
- bilayered organization of mouse mammary organoids (mouse mammary organoids): disrupted the clean bilayered organization
- recEcad binding to HMEC surfaces (HMEC cell surfaces): did not prevent
- lineage-specific differences in E-cadherin expression (E-cadherin): did not change
- self-organization of LEPs and MEPs [1]: prevented self-organization
- organization measured at 48 h [1]: obliterated organization
- self-organization at the 24-h time point [1]: prevented self-organization
- differences in LEP:MEP ratios in the core and at the periphery by 48 h [1]: differences in LEP:MEP ratios in the core and at the periphery were observed
- LEP stiffness (LEPs): caused softening

Structure (SMILES): C[C@@H](N)[C@H]1CC[C@H](C(=O)Nc2ccncc2)CC1 [Y27632]
- breakdown and recycling of mature adherens junctions (HCT116): unable to break down and recycle
- MEP stiffness (MEPs): unaffected
- bilayered organization of mouse mammary organoids (mouse mammary organoids): disrupted the clean bilayered organization
- recEcad binding to HMEC surfaces (HMEC cell surfaces): did not prevent
- lineage-specific differences in E-cadherin expression (E-cadherin): did not change
- breakdown and recycling of mature adherens junctions (MDCK): unable to break down and recycle
- self-organization of LEPs and MEPs [1]: prevented self-organization
- organization measured at 48 h [1]: preserved the self-organized LEP cores
- self-organization at the 24-h time point [1]: prevented self-organization
- differences in LEP:MEP ratios in the core and at the periphery by 48 h [1]: differences in LEP:MEP ratios in the core and at the periphery were observed
- LEP stiffness (LEPs): caused softening

Source: patent US20130203069A1, “Dynamic Assay for Maintenance and Disruption of Tissue Level Organization and Architecture” (THE REGENTS OF THE UNIVERSITY OF CALIFORNIA, priority 2012, published 2013)
